Values quoted from earlier work as cited in US20070009589A1, “EXTENDED RELEASE COMPOSITIONS” (priority 2005, published 2007).

Tests used:
[1] = in water

water solubility [1]	Log P	SMILES
freely soluble in water		COCCc1ccc(OCC(O)CNC(C)C)cc1 (racemic) [Metoprolol succinate, (±)-1-(isopropylamino)-3-[p-(2-methoxyethyl)phenoxy]-2-propanol succinate (2:1)]
low water solubility	2.48	COCCc1ccc(OCC(O)CNC(C)C)cc1 (stereo not drawn) [Metoprolol]
